Measured values published in patent publication US12698260B2, “Solid state form of centanafadine HCL and process for preparation thereof” (ASSIA CHEMICAL INDUSTRIES LTD., priority 2021, dated 2026).

Legend:
[1] = Solubility over a range of pH; settings: over a wide range of pH; comparator not stated
[2] = Solid-state stability upon storage and processing; settings: storage and processing (e.g. grinding, pressure, heat, humidity)

c1ccc2cc([C@]34CNC[C@H]3C4)ccc2c1 [(1R,5S)-1-naphthalen-2-yl-3-azabicyclo[3.1.0]hexane]
solubility [1]: improved solubility
stability of the crystalline form upon storage and processing [2]: stable crystalline Form upon storage and processing
